Test results as given in patent US5519034A, “Tetraisoquinoline compounds which have useful pharmaceutical utility” (The Boots Company PLC, priority 1991, dated 1996).
Like-named read-outs stand apart in the source and are kept apart here.

Key:
D1 dopamine receptors = molecular target: T1, D1 dopamine receptors (Rattus norvegicus, UniProt P18901); experiment: D1 dopamine receptor binding: inhibition of tritiated SCH 23390 binding, rat striatal samples; parameters: species or system rat (male Charles River CD rats); details: rat striatum, tritiated SCH 23390, pH 7.4, 37° C., 30 minutes
T1 construct: Striatal samples from the brains of male Charles River CD rats; from tissue; host or cells: striatum of male Charles River CD rats (washed membrane pellet)
T1 sequence (P18901 whole entry): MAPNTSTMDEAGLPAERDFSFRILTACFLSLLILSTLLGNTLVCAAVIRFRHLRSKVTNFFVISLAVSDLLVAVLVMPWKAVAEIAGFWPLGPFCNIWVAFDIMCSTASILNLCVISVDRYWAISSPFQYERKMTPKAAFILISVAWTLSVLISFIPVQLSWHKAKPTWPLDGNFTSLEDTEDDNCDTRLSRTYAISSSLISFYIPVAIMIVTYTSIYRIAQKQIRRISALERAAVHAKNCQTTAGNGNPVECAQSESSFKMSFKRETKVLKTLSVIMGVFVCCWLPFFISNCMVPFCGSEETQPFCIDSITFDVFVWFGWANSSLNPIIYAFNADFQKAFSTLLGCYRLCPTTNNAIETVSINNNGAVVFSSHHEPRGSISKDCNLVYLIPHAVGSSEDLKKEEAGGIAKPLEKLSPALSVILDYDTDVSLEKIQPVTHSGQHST
Protocol: (§1) Striatal samples from the brains of male Charles River CD rats weighing between 140-250 g were homogenised in ice-cold 50 mM Tris-HCl buffer (pH 7.4 when measured at 25° C. for D1 binding assays and pH 7.7 when measured at 25° C. for D2 binding assays) and centrifuged for 10 minutes (at 21,000 g when used for D1binding assay and 40,000 g when used for D2binding assays). The pellet was resuspended in the same buffer, again centrifuged and the final pellet stored at -80° C. Before each test the pellet was resuspended in 50 mM Tris-HCl buffer containing 120 mM NaCl, 5 mM KCl, 2 mM CaCl2 and 1 mM MgCl2 at pH 7.4 for the D1 binding assays and at pH 7.7 with the addition of 6 mM ascorbic acid for the D2 binding assays. Aliquots of this suspension were then added to tubes containing the ligand and either the compound under test or buffer. For the D1 binding assays the ligand was tritiated SCH 23390 and the mixture was incubated at 37° C. for 30 minutes before the incubation was terminated by rapid filtration. For the D2 binding assays the ligand was tritiated (S)-sulpiride and the mixture was incubated at 4° C. for 40 minutes before the incubation was terminated by rapid filtration. Non-specific binding was determined experimentally by the addition of saturating concentrations of chloropromazine or spiroperidol for D1 and D2 receptors respectively.
(§2) The filters were washed with ice-cold Tris-HCl buffer and dried. The filters were punched out on to vials containing scintillation fluid and were left for about 20 hours before being counted by scintillation spectrophotometry. Displacement curves were produced over a range of concentrations of the compound under test and the concentration which gave a 50% inhibition of specific binding (IC50) obtained from the curve. The inhibition coefficient Ki was then calculated using the formula [formula] in which [ligand] is the concentration of the tritiated ligand used and KD is the equilibrium dissociation constant for the ligand.
(§3) In some cases Ki values for D2 binding were estimated from single concentration data by the application of the Langmuir adsorption isotherm equation. These cases are indicated by an "E" in the last two columns of Table I. In other cases it was not possible to determine or estimate the Ki and the Ki value is given as greater than (>) that which would result from the application of the above formula to the highest concentration which displaced ≤50% of the ligand.

D2 dopamine receptors = molecular target: T2, D2 dopamine receptors (Rattus norvegicus, UniProt P61169); experiment: D2 dopamine receptor binding: inhibition of tritiated (S)-sulpiride binding, rat striatal samples; parameters: species or system rat (male Charles River CD rats); details: for Ki: rat striatum, tritiated (S)-sulpiride; for Ki for D2 / Ki for D1: ratio to two significant figures
T2 construct: Striatal samples from the brains of male Charles River CD rats; from tissue; host or cells: striatum of male Charles River CD rats (washed membrane pellet)
T2 sequence (P61169 whole entry): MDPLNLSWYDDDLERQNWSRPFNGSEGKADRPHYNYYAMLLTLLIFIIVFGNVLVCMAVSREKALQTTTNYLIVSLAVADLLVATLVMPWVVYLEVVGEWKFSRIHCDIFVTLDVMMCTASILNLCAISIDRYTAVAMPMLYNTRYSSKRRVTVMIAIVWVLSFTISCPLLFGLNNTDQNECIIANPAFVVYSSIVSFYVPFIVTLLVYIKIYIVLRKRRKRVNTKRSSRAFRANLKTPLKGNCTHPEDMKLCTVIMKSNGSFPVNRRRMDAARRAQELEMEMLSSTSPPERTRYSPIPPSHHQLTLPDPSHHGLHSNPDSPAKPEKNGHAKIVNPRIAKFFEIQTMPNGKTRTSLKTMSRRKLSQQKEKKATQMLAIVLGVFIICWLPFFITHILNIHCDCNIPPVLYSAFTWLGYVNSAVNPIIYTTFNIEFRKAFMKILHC
Protocol: as §1, §2, §3

[1] = pH 7.7, 4° C., 40 minutes, > = from highest concentration which displaced ≤50% of the ligand, read-out: Ki for D2 binding

Row | Ki (D1 dopamine receptors) | Ki (D2 dopamine receptors; [1]) | Ki for D2 / Ki for D1 (D2 dopamine receptors) | Ki (D2 dopamine receptors; estimated from single concentration data by Langmuir adsorption isotherm equation, read-out: Ki for D2 binding (marked E)) | Structure (SMILES)
1 | 2.8 nM | 2 µM | 710 |  | CN1CCc2cc(O)c(O)cc2C1C1(c2ccccc2Br)CCC1 (single isomer, unassigned; (+)) [Example 60, (+)-1-[1-(2-bromo-phenyl)cyclobutyl] -6,7-dihydroxy-2-methyl-1,2,3,4-tetrahydroisoquinoline]
2 | 0.38 nM | 0.41 µM | 1100 |  | CN1CCc2cc(F)c(O)cc2C1C1(c2ccccc2Cl)CC1 (single isomer, unassigned; (+)) [Example 62, (+)-1-[1-(2-chlorophenyl)cyclopropyl]-6-fluoro-7-hydroxy-2-methyl-1,2,3,4-tetrahydroisoquinoline]
3 | 2.4 nM | 4.8 µM | 2000 |  | CN1CCc2cc(F)c(O)cc2C1C1(c2ccccc2Cl)CCC1 (single isomer, unassigned; (+)) [Example 64, (+)-1-[1-(2-chlorophenyl)cyclobutyl]-6-fluoro-7-hydroxy-2-methyl-1,2,3,4-tetrahydroisoquinoline]
4 | 0.28 nM | 0.9 µM | 3200 |  | COc1cc2c(cc1O)C(C1(c3ccccc3Cl)CC1)N(C)CC2 (single isomer, unassigned; (+)) [Example 77, (+)-1-[1-(2-chlorophenyl)cyclopropyl]-7-hydroxy-6-methoxy-2-methyl-1,2,3,4-tetrahydroisoquinoline]
5 | 0.67 nM | 0.37 µM | 550 |  | Cc1cc2c(cc1O)C(C1(c3ccccc3Cl)CC1)N(C)CC2 (single isomer, unassigned; (+)) [Example 80, (+)-1-[1-(2-chlorophenyl)cyclopropyl]-7-hydroxy-2,6-dimethyl-1,2,3,4-tetrahydroisoquinoline]
6 | 0.28 nM | 0.9 µM | 3200 |  | COc1cc2c(cc1O)C(C1(c3ccccc3Cl)CC1)N(C)CC2 (single isomer, unassigned; (+)) [Example 85, (+)-1-[1-(2-chlorophenyl)cyclopropyl]-7-hydroxy-6-methoxy-2-methyl-1,2,3,4-tetrahydroisoquinoline]
7 | 5.2 nM | 3.2 µM | 620 |  | CN1CCc2cc(Cl)c(O)cc2C1C1(c2ccccc2)CCC1 (single isomer, unassigned; (-)) [Example 59, (-)-6-chloro-7-hydroxy-2-methyl-1-(1-phenylcyclobutyl)-1,2,3,4-tetrahydroisoquinoline]
8 | 4 nM | 1 µM | 250 |  | CN1CCc2cc(O)c(O)cc2C1C1(c2ccccc2Br)CCC1 (centres unmarked) [Example 1, 1-[1-(2-bromophenyl)cyclobutyl]-6,7-dihydroxy-2-methyl-1,2,3,4-tetrahydroisoquinoline]
9 | 7.2 nM | 12 µM | 1700 |  | CN1CCc2cc(O)c(O)cc2C1C1(c2ccccc2Cl)CCC1 (centres unmarked) [Example 2, 1-[1-(2-chlorophenyl)cyclobutyl]-6,7-dihydroxy-2-methyl-1,2,3,4-tetrahydroisoquinoline]
10 | 22 nM | 6100 µM | 280000 |  | CN1CCc2cc(O)c(O)cc2C1C1(c2ccc(F)cc2)CCC1 (centres unmarked) [Example 3, 1-[1-(4-fluorophenyl)cyclobutyl]-6,7-dihydroxy-2-methyl-1,2,3,4-tetrahydroisoquinoline]
11 | 29 nM | 260 µM | 9000 |  | Cc1ccccc1C1(C2c3cc(O)c(O)cc3CCN2C)CCC1 (centres unmarked) [Example 4, 6,7-dihydroxy-2-methyl-1-[1-(o-tolyl)cyclobutyl]-1,2,3,4-tetrahydroisoquinoline]
12 | 8.3 nM | 32 µM | 3900 |  | CN1CCc2cc(F)c(O)cc2C1C1(c2ccc(Cl)cc2)CCC1 (centres unmarked) [Example 5, 1-[1-(4-chlorophenyl)cyclobutyl]-6-fluoro-7-hydroxy-2-methyl-1,2,3,4-tetrahydroisoquinoline]
13 | 3 nM | 41 µM | 14000 |  | CN1CCc2cc(F)c(O)cc2C1C1(c2ccc(Br)cc2)CCC1 (centres unmarked) [Example 6, 1-[1-(4-bromophenyl)cyclobutyl]-6-fluoro-7-hydroxy-2-methyl-1,2,3,4-tetrahydroisoquinoline]
14 | 21 nM | 2.9 µM | 140 |  | CN1CCc2cc(O)c(O)cc2C1C1(c2ccccc2F)CCC1 (centres unmarked) [Example 7, 1-[1-(2-fluorophenyl)cyclobutyl]-6,7-dihydroxy-2-methyl-1,2,3,4-tetrahydroisoquinoline]
15 | 310 nM | > 5 µM | > 16 |  | CN1CCc2cc(O)c(O)cc2C1C1(c2cccc(C(F)(F)F)c2)CCC1 (centres unmarked) [Example 8, 6,7-dihydroxy-2-methyl-1-[1-(3-trifluoromethylphenyl)cyclobutyl]-1,2,3,4-tetrahydroisoquinoline]
16 | 1.9 nM | 1.8 µM | 950 |  | CN1CCc2cc(F)c(O)cc2C1C1(c2ccc(Cl)cc2Cl)CCC1 (centres unmarked) [Example 9, 1-[1-(2,4-dichlorophenyl)cyclobutyl]-6-fluoro-7-hydroxy-2-methyl-1,2,3,4-tetrahydroisoquinoline]
17 | 1.6 nM | 2.5 µM | 1600 |  | Cc1cc2c(cc1O)C(C1(c3ccccc3Cl)CCC1)N(C)CC2 (centres unmarked) [Example 10, 1-[1-(2-chlorophenyl)cyclobutyl]-7-hydroxy-2,6-dimethyl-1,2,3,4-tetrahydroisoquinoline]
18 | 150 nM | 3.5 µM | 23 |  | CN1CCc2cc(-c3ccccc3)c(O)cc2C1C1(c2ccccc2Cl)CCC1 (centres unmarked) [Example 11, 1-[1-(2-chlorophenyl)cyclobutyl]-7-hydroxy-2-methyl-6-phenyl-1,2,3,4-tetrahydroisoquinoline]
19 | 1.4 nM | 0.71 µM | 510 |  | CN1CCc2ccc(O)cc2C1C1(c2ccccc2Cl)CC1 (centres unmarked) [Example 12, 1-(1-(2-chlorophenyl)cyclopropyl)-7-hydroxy-2-methyl-1,2,3,4-tetrahydroisoquinoline]
20 | 44 nM | 3.7 µM | 84 |  | CN1CCc2cc(O)c(O)cc2C1C1(c2ccc(Cl)cc2)CC1 (centres unmarked) [Example 13, 1-[1-(4-chlorophenyl)cyclopropyl]-6,7-dihydroxy-2-methyl-1,2,3,4-tetrahydroisoquinoline]
21 | 120 nM | 4.8 µM | 40 |  | CN1CCc2cc(O)c(O)cc2C1C1(c2ccc(Cl)cc2)CCCC1 (centres unmarked) [Example 14, 1-[1-(4-chlorophenyl)cyclopentyl]-6,7-dihydroxy-2-methyl-1,2,3,4-tetrahydroisoquinoline]
22 | 200 nM | > 5 µM | > 25 |  | CN1CCc2cc(O)c(O)cc2C1C1(c2ccccc2)CCCC1 (centres unmarked) [Example 15, 6,7-dihydroxy-2-methyl-1-(1-phenylcyclopentyl)-1,2,3,4-tetrahydroisoquinoline]
23 | 180 nM | 3.2 µM | 18 |  | CN1CCc2cc(O)c(O)cc2C1C1(c2ccc(Cl)cc2)CCCCC1 (centres unmarked) [Example 16, 1-[1-(4-chlorophenyl)cyclohexyl]-6,7-dihydroxy-2-methyl-1,2,3,4-tetrahydroisoquinoline]
24 | 3.9 nM | 8.9 µM | 2300 |  | CN1CCc2cc(O)c(O)cc2C1C1(c2ccc(Br)cc2)CCC1 (centres unmarked) [Example 17, 1-[1-(4-bromophenyl)cyclobutyl]-6,7-dihydroxy-2-methyl-1,2,3,4-tetrahydroisoquinoline]
25 | 83 nM | 4.4 µM | 53 |  | CN1CCc2cc(O)c(O)cc2C1C1(c2ccc(Cl)c(Cl)c2)CCC1 (centres unmarked) [Example 18, 1-[1-(3,4-dichlorophenyl)cyclobutyl]-6,7-dihydroxy-2-methyl-1,2,3,4-tetrahydroisoquinoline]
26 | 190 nM |  |  | 7 µM | CN1CCc2cc(O)c(O)cc2C1C1(c2ccc(O)cc2)CCCC1 (centres unmarked) [Example 19, 6,7-dihydroxy-1-[1-(4-hydroxyphenyl)cyclopentyl]-2-methyl-1,2,3,4-tetrahydroisoquinoline]
27 | 31 nM | > 5 µM | > 160 |  | CN1CCc2cc(Br)c(O)cc2C1C1(c2ccccc2)CCC1 (centres unmarked) [Example 20, 6-bromo-7-hydroxy-2-methyl-1-(1-phenylcyclobutyl)-1,2,3,4-tetrahydrosoqunoline]
